The values below come from patent publication US12570988B2, “Aptamers that bind thiamine analogs and derivatives” (MeiraGTx Gene Regulation Limited, priority 2020, dated 2026).

In experiment [1] the test system is riboswitch 15D10. The experiment is described as follows: Luciferase reporter with 15D10 riboswitch (Luci-15D10) in HEK 293 cells. The experiment is classed as cell-based, human. Particulars: Homo sapiens, HEK293, 24 h, 50 μM, HEK 293 cells, read-out: Fold increase in riboswitch 15D10-regulated luciferase expression, HEK. A digest of the protocol: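 Cells transfected with riboswitch-luciferase plasmid; 4 h later medium replaced with TPP or thiamine analogs (fursultiamine, prosultiamine, bisbentiamine, beclotiamine, sulbutiamine) as inducers.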
In general terms: A reporter such as luciferase makes a cellular process visible.

The subject of experiment [2] is riboswitch 15D10. The experiment in a line: Luciferase reporter with 15D10 riboswitch (Luci-15D10) in AML12 cells. Type of experiment: cell-based, mouse. Particulars: Mus musculus, AML12, 24 h, 50 μM, AML12 cells, read-out: Fold increase in riboswitch 15D10-regulated luciferase expression, AML.

Structures are written as SMILES.

With `C/C(=C(\CCO)SC(=O)c1ccccc1Oc1ccccc1)N(C=O)Cc1cnc(C)nc1N` [Compound M113, (Z)—S-(2-(N-((4-amino-2-methylpyrimidin-5-yl)methyl)formamido)-5-hydroxypent-2-en-3-yl) 2-phenoxybenzothioate], the fold induction at 50 µM came out at 213 in experiment [1] (Table 2), 265 in experiment [1] (Table 3), 272 in experiment [2] (Table 2) and 348 in experiment [2] (Table 3).
Turning to `C/C(=C(\CCO)SC(=O)c1ccc(C(C)(C)C)cc1)N(C=O)Cc1cnc(C)nc1N` [Compound M114, (Z)—S-(2-(N-((4-amino-2-methylpyrimidin-5-yl)methyl)formamido)-5-hydroxypent-2-en-3-yl) 4-(tert-butyl)benzothioate], the figures for the fold induction at 50 µM in experiment [1] (Table 2) and in experiment [2] (Table 2) were 50.1 and 88.8, respectively.
Taken in the same sequence, the figures for `CCOc1cc(C(C)(C)C)ccc1C(=O)S/C(CCO)=C(/C)N(C=O)Cc1cnc(C)nc1N` [Compound M115, (Z)—S-(2-(N-((4-amino-2-methylpyrimidin-5-yl)methyl)formamido)-5-hydroxypent-2-en-3-yl) 4-(tert-butyl)-2-ethoxybenzothioate] were 19.9 and 52.1.
With `C/C(=C(\CCO)SC(=O)c1c(F)cccc1Oc1ccccc1)N(C=O)Cc1cnc(C)nc1N` [Compound M126, (Z)—S-(2-(N-((4-amino-2-methylpyrimidin-5-yl)methyl)formamido)-5-hydroxypent-2-en-3-yl) 2-fluoro-6-phenoxybenzothioate], the fold induction at 50 µM worked out at 147 in experiment [1] (Table 3) and 305 in experiment [2] (Table 3).
Regarding `C/C(=C(\CCO)SC(=O)c1c(Cl)cccc1Oc1ccccc1)N(C=O)Cc1cnc(C)nc1N` [Compound M127, (Z)—S-(2-(N-((4-amino-2-methylpyrimidin-5-yl)methyl)formamido)-5-hydroxypent-2-en-3-yl) 2-chloro-6-phenoxybenzothioate], the fold induction at 50 µM was found to be 0.46 in experiment [1] (Table 3) and 7.39 in experiment [2] (Table 3).
The corresponding values for `C/C(=C(\CCO)SC(=O)c1c(C)cccc1Oc1ccccc1)N(C=O)Cc1cnc(C)nc1N` [Compound M128, (Z)—S-(2-(N-((4-amino-2-methylpyrimidin-5-yl)methyl)formamido)-5-hydroxypent-2-en-3-yl) 2-methyl-6-phenoxybenzothioate] are 0.56 and 7.87.
The corresponding values for `C/C(=C(\CCO)SC(=O)c1c(F)cccc1OCc1ccccc1)N(C=O)Cc1cnc(C)nc1N` [Compound M129, (Z)—S-(2-(N-((4-amino-2-methylpyrimidin-5-yl)methyl)formamido)-5-hydroxypent-2-en-3-yl) 2-(benzyloxy)-6-fluorobenzothioate] are 10.9 and 167.
Regarding `C/C(=C(\CCO)SC(=O)c1c(F)cccc1Oc1cccc(Cl)c1)N(C=O)Cc1cnc(C)nc1N` [Compound M130, (Z)—S-(2-(N-((4-amino-2-methylpyrimidin-5-yl)methyl)formamido)-5-hydroxypent-2-en-3-yl) 2-(3-chlorophenoxy)-6-fluorobenzothioate], the fold induction at 50 µM in experiment [1] (Table 3) was 110; in experiment [2] (Table 3), 329.
The corresponding values for `C/C(=C(\CCO)SC(=O)c1cc(Cl)ccc1Oc1ccccc1)N(C=O)Cc1cnc(C)nc1N` [Compound M131, (Z)—S-(2-(N-((4-amino-2-methylpyrimidin-5-yl)methyl)formamido)-5-hydroxypent-2-en-3-yl) 5-chloro-2-phenoxybenzothioate] are 741 and 509.
Taken in the same sequence, the figures for `C/C(=C(\CCO)SC(=O)c1ccc(C)cc1Oc1ccccc1Cl)N(C=O)Cc1cnc(C)nc1N` [Compound M133, (Z)—S-(2-(N-((4-amino-2-methylpyrimidin-5-yl)methyl)formamido)-5-hydroxypent-2-en-3-yl) 2-(2-chlorophenoxy)-4-methylbenzothioate] were 100 and 273.
Taken in the same sequence, the figures for `C/C(=C(\CCO)SC(=O)c1cc(Cl)ccc1Oc1ccc(F)cc1)N(C=O)Cc1cnc(C)nc1N` [Compound M134, (Z)—S-(2-(N-((4-amino-2-methylpyrimidin-5-yl)methyl)formamido)-5-hydroxypent-2-en-3-yl) 5-chloro-2-(4-fluorophenoxy)benzothioate] were 557 and 408.
In the case of `C/C(=C(\CCO)SC(=O)c1ccccc1Oc1cccc(C#N)c1)N(C=O)Cc1cnc(C)nc1N` [Compound M135, (Z)—S-(2-(N-((4-amino-2-methylpyrimidin-5-yl)methyl)formamido)-5-hydroxypent-2-en-3-yl) 2-(3-cyanophenoxy)benzothioate], the figures for the fold induction at 50 µM in experiment [1] (Table 3) and in experiment [2] (Table 3) were 87.5 and 44.5, respectively.
With `C/C(=C(\CCO)SC(=O)c1ccccc1Oc1ccccc1Cl)N(C=O)Cc1cnc(C)nc1N` [Compound M136, (Z)—S-(2-(N-((4-amino-2-methylpyrimidin-5-yl)methyl)formamido)-5-hydroxypent-2-en-3-yl) 2-(2-chlorophenoxy)benzothioate], the fold induction at 50 µM came out at 132 in experiment [1] (Table 3) and 263 in experiment [2] (Table 3).
Taken in the same sequence, the figures for `C/C(=C(\CCO)SC(=O)c1ccccc1Oc1ccccc1Br)N(C=O)Cc1cnc(C)nc1N` [Compound M137, (Z)—S-(2-(N-((4-amino-2-methylpyrimidin-5-yl)methyl)formamido)-5-hydroxypent-2-en-3-yl) 2-(2-bromophenoxy)benzothioate] were 140 and 288.
Turning to `C/C(=C(\CCO)SC(=O)c1ccccc1Oc1c(Cl)cccc1Cl)N(C=O)Cc1cnc(C)nc1N` [Compound M138, (Z)—S-(2-(N-((4-amino-2-methylpyrimidin-5-yl)methyl)formamido)-5-hydroxypent-2-en-3-yl) 2-(2,6-dichlorophenoxy)benzothioate], the fold induction at 50 µM is 228 in experiment [1] (Table 3) and 195 in experiment [2] (Table 3).
The corresponding values for `C/C(=C(\CCO)SC(=O)c1ccccc1Oc1cccc(C(C)(C)C)c1)N(C=O)Cc1cnc(C)nc1N` [Compound M139, (Z)—S-(2-(N-((4-amino-2-methylpyrimidin-5-yl)methyl)formamido)-5-hydroxypent-2-en-3-yl) 2-(3-(tert-butyl)phenoxy)benzothioate] are 37 and 188.
With `C/C(=C(\CCO)SC(=O)c1ccccc1Oc1ccc2ccccc2c1)N(C=O)Cc1cnc(C)nc1N` [Compound M140, (Z)—S-(2-(N-((4-amino-2-methylpyrimidin-5-yl)methyl)formamido)-5-hydroxypent-2-en-3-yl) 2-(naphthalen-2-yloxy)benzothioate], the fold induction at 50 µM is 175 in experiment [1] (Table 3) and 192 in experiment [2] (Table 3).
The corresponding values for `C/C(=C(\CCO)SC(=O)c1ccccc1Oc1cccc2cccnc12)N(C=O)Cc1cnc(C)nc1N` [Compound M141, (Z)—S-(2-(N-((4-amino-2-methylpyrimidin-5-yl)methyl)formamido)-5-hydroxypent-2-en-3-yl) 2-(quinolin-8-yloxy)benzothioate] are 1.61 and 3.46.
The corresponding values for `C/C(=C(\CCO)SC(=O)c1c(F)cccc1Oc1ccccc1Cl)N(C=O)Cc1cnc(C)nc1N` [Compound M142, (Z)—S-(2-(N-((4-amino-2-methylpyrimidin-5-yl)methyl)formamido)-5-hydroxypent-2-en-3-yl) 2-(2-chlorophenoxy)-6-fluorobenzothioate] are 85.3 and 184.
Taken in the same sequence, the figures for `CCOc1ccc(C(=O)S/C(CCO)=C(/C)N(C=O)Cc2cnc(C)nc2N)c(Oc2cccc(F)c2)c1` [Compound M143, (Z)—S-(2-(N-((4-amino-2-methylpyrimidin-5-yl)methyl)formamido)-5-hydroxypent-2-en-3-yl) 4-ethoxy-2-(3-fluorophenoxy)benzothioate] were 138 and 300.
Take `C/C(=C(\CCO)SC(=O)c1ccc(C(C)(C)C)cc1Oc1ccccc1)N(C=O)Cc1cnc(C)nc1N` [Compound M145, (Z)—S-(2-(N-((4-amino-2-methylpyrimidin-5-yl)methyl)formamido)-5-hydroxypent-2-en-3-yl) 4-(tert-butyl)-2-phenoxybenzothioate]: the figures for the fold induction at 50 µM in experiment [1] (Table 3) and in experiment [2] (Table 3) were 156 and 60.6, respectively.
With `C/C(=C(\CCO)SC(=O)c1ccccc1Oc1ccc(C(F)(F)F)nc1)N(C=O)Cc1cnc(C)nc1N` [Compound M146, (Z)—S-(2-(N-((4-amino-2-methylpyrimidin-5-yl)methyl)formamido)-5-hydroxypent-2-en-3-yl) 2-((6-(trifluoromethyl)pyridin-3-yl)oxy)benzothioate], the fold induction at 50 µM in experiment [1] (Table 3) stood at 53.3; in experiment [2] (Table 3), 96.6.
The corresponding values for `C/C(=C(\CCO)SC(=O)c1ccccc1Oc1ccc2c(c1)OCCO2)N(C=O)Cc1cnc(C)nc1N` [Compound M147, (Z)—S-(2-(N-((4-amino-2-methylpyrimidin-5-yl)methyl)formamido)-5-hydroxypent-2-en-3-yl) 2-((2,3-dihydrobenzo[b][1,4]dioxin-6-yl)oxy)benzothioate] are 193 and 267.
The corresponding values for `C/C(=C(\CCO)SC(=O)c1cccc2c1oc1ccccc12)N(C=O)Cc1cnc(C)nc1N` [Compound M148, (Z)—S-(2-(N-((4-amino-2-methylpyrimidin-5-yl)methyl)formamido)-5-hydroxypent-2-en-3-yl) dibenzo[b,d]furan-4-carbothioate] are 153 and 288.
